Data: patent publication US20250026765A1, “SPIROHETEROCYCLE DERIVATIVE HAVING SEROTONIN RECEPTOR BINDING ACTIVITY” (Shionogi & Co., Ltd., priority 2021, published 2025)
Where two headings read alike, the source gives them in different places.

What was measured:
[1] = target: human recombinant 5-HT2C receptor (Homo sapiens (Human), UniProt P28335); test: 5-HT2C receptor binding inhibition test ([3H]-Mesulergine); conditions: Jump-In HEK cell membrane, 37° C. 2 hours
Procedure: Test Example 2: 5-HT2C Receptor Binding Inhibition Test
(§1) (Each Experimental Condition)
Cell membrane: 0.5 μg of Jump-In HEK cell membrane (expressing human recombinant 5-HT2C receptor) per well
(§2) Assay buffer: Tris-HCl 50 mmol/L (pH 7.4) containing NaCl 120 mmol/L, MgCl2·6H2O 1 mmol/L, KCl 5 mmol/L, 0.1% BSA and CaCl2 2 mmol/L
Radioactive ligand: [^3H]-Mesulergine with a final concentration of around Kd value calculated by the following method
Non-specific ligand: Serotonin HCl with a final concentration of […]
(§3) The Kd value is calculated when the lot of cell membrane is changed. In advance, 0.5 μL of a 1 mmol/L compound for non-specific binding calculation dissolved in DMSO or DMSO is dispensed into a microplate, and the cell membrane is diluted with an Assay buffer. The radioactive ligand solution is serially diluted and the count is confirmed with a liquid scintillator. Assay buffer containing diluted cell membrane is dispensed into a microplate at 50 μL/well. Then, the radioactive ligand solution is dispensed into a microplate at 50 μL/well, and the plate is sealed. It is allowed to stand at 37° C. for 2 hours. During this period, 50 mmol/L Tris-HCl (pH 7.4) is dispensed into a GF/B UniFilter plate at 50 μL/well and allowed to stand at 4° C. for 1 hour or longer. After that, filtration is performed with Cell harvester (PerkinElmer). The radioactive ligand solution is dispensed into an empty well of the GF/B UniFilter plate at 10 μL/well. After the GF/B UniFilter plate is dried at room temperature, MicroScinti 20 is dispensed into the GF/B UniFilter plate at 50 μL/well to seal the plate. The GF/B UniFilter plate is allowed to stand overnight at room temperature. The radioactivity of [^3H]-Mesulergine bound to the 5-HT2C receptor is measured using Microbeta2 (PerkinElmer) at a measurement time of 1 min/well. The Saturation curve is drawn from the measured value, and the Kd value is calculated from the slope of the Scatchard Plot.
(§4) (Binding Test of the Compound According to the Present Invention)
In advance, 0.5 μL of the compound solution dissolved in DMSO is dispensed into a microplate, and the cell membrane and the hot ligand are diluted with Assay buffer, respectively. Then, the Assay buffer containing the diluted cell membrane is dispensed into a microplate at 50 μL/well. Then, the radioactive ligand solution is dispensed into a microplate at 50 μL/well, and the plate is sealed. Then, it is allowed to stand at 37° C. for 2 hours. During this period, 50 mmol/L Tris-HCl (pH 7.4) is dispensed into a GF/B UniFilter plate at 50 μL/well and allowed to stand at 4° C. for 1 hour or longer. After that, filtration is performed with Cell harvester (PerkinElmer). After the GF/B UniFilter plate is dried at room temperature, MicroScinti 20 is dispensed into the GF/B UniFilter plate at 50 μL/well, and the plate is sealed. The GF/B UniFilter plate is allowed to stand overnight at room temperature. The radioactivity of [^3H]-Mesulergine bound to the 5-HT2C receptor is measured using Microbeta2 (PerkinElmer) at a measurement time of 1 min/well. The non-specific binding is calculated from the radioactivity of […] in the presence of 500 μmol/L Serotonin HCl which is the unlabeled ligand, and the total binding is calculated from the radioactivity of [^3H]-Mesulergine in the absence of the compound according to the present invention (Vehicle). Finally, the Ki value is calculated from the dose-response curve.
(§5) (The binding activity of the compound according to the present invention is calculated from the following binding inhibition rate (%).)
(§6) [formula] • a; mean cpm of non-specific binding • b; average cpm of total binding • c; cpm in the presence of the test compound

[2] = target: human recombinant 5-HT2A receptor (Homo sapiens (Human), UniProt P28223); test: 5-HT2A receptor binding inhibition test ([3H]-Ketanserin); conditions: Jump-In HEK cell membrane, 25° C. 1.5 hours
Procedure: Test Example 1: 5-HT2A Receptor Binding Inhibition Test
as §1
Cell membrane: 15 μg of Jump-In HEK cell membrane (expressing human recombinant 5-HT2A receptor) per well
as §2
Radioactive ligand: [^3H]-Ketanserin with a final concentration of around Kd value calculated by the following method
Non-specific ligand: Serotonin HCl with a final concentration of 500 μmol/L
as §3, with “at room temperature (25° C.)” for “at 37° C.”, “for 1.5” for “for 2”, “of [^3H]-Ketanserin” for “of [^3H]-Mesulergine”, “the 5-HT2A” for “the 5-HT2C”
as §4
In advance, 0.5 μL of the compound solution dissolved in DMSO is dispensed into a microplate, and the cell membrane and the hot ligand are diluted with Assay buffer, respectively. Then, the Assay buffer containing the diluted cell membrane is dispensed into a microplate at 50 μL/well. Then, the radioactive ligand solution is dispensed into a microplate at 50 μL/well, and the plate is sealed. Then, it is allowed to stand at room temperature (25° C.) for 1.5 hours. During this period, 50 mmol/L Tris-HCl (pH 7.4) is dispensed into a GF/B UniFilter plate at 50 μL/well and allowed to stand at 4° C. for 1 hour or longer. After that, filtration is performed with Cell harvester (PerkinElmer). After the GF/B UniFilter plate is dried at room temperature, MicroScinti 20 is dispensed into the GF/B UniFilter plate at 50 μL/well to seal the plate. The GF/B UniFilter plate is allowed to stand overnight at room temperature. The radioactivity of [^3H]-Ketanserin bound to the 5-HT2A receptor is measured using Microbeta2 (PerkinElmer) at a measurement time of 1 min/well. The non-specific binding is calculated from the radioactivity of [^3H]-Ketanserin in the presence of 500 μmol/L Serotonin HCl which is the unlabeled ligand, and the total binding is calculated from the radioactivity of [^3H]-Ketanserin in the absence of the compound according to the present invention (Vehicle). Finally, the Ki value is calculated from the dose-response curve.
as §5, §6

[3] = read-out: human serotonin 5-HT2C receptor binding activity Ki
[4] = read-out: human serotonin 5-HT2A receptor binding activity Ki

Chain of human recombinant 5-HT2C receptor (P28335 33-458): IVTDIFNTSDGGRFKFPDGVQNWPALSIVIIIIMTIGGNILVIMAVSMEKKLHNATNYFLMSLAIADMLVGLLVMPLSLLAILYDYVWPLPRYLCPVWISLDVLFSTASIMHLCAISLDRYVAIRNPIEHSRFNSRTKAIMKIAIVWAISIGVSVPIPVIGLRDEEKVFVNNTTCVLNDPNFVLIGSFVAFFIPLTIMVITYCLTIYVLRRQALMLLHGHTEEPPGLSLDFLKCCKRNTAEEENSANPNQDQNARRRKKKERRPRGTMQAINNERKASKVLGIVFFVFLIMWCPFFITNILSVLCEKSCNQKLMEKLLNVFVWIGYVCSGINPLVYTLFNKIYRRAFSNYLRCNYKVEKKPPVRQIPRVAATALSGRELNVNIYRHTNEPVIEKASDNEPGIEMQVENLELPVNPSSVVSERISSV
Chain of human recombinant 5-HT2A receptor (P28223 whole entry): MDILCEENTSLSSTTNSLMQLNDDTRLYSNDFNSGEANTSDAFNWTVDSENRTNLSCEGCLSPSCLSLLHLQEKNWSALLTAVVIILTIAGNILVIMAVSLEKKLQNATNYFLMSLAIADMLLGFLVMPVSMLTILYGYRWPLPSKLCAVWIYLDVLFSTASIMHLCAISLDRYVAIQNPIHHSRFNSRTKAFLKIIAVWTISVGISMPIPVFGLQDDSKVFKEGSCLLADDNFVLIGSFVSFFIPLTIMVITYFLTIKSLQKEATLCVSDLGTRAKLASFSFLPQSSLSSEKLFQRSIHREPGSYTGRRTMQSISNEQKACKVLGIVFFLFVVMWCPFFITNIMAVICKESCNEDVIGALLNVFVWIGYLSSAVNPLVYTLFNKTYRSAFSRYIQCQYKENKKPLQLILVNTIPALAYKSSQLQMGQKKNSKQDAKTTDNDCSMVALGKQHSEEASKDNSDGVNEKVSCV

Ki ([1]; read-out: h-5-HT2C Ki) | Ki ([2]; read-out: h-5-HT2A Ki) | Ki [1, 3] | Ki [2, 4] | SMILES
< 10 nM | < 10 nM | – | – | CCCOc1ccc(CC2=NOC3(CCN(C)CC34CC4)N2Cc2cc(C)n(C)n2)cc1 (racemic) [Compound I-029]
10 to 100 nM | < 10 nM | – | – | COc1ccc(CC2=NOC3(CCN(C)CC34CC4)N2Cc2cc(C)n(C)n2)cc1 (racemic) [Compound I-034]
< 10 nM | < 10 nM | – | – | Cc1cc(CN2C(Cc3ccc(OC(F)F)cc3)=NOC23CCN(C)CC32CC2)nn1C (racemic) [Compound I-035]
< 10 nM | < 10 nM | – | – | CCCOc1ccc(CC2=NOC3(CCNCC34CC4)N2Cc2ccn(C)n2)cc1 (racemic) [Compound I-037]
< 10 nM | 10 to 100 nM | – | – | Cn1ccc(CN2C(Cc3ccc(OC4CC4)cc3)=NOC23CCNCC32CC2)n1 (racemic) [Compound I-038]
100 to 500 nM | 100 to 500 nM | – | – | CCCOc1ccc(CNC2=NOC3(CCN(C)CC34CC4)N2Cc2ccn(C)n2)cc1 (racemic) [Compound I-040]
< 10 nM | < 10 nM | – | – | CN1CCC2(ON=C(Cc3ccc(OC4CC4)cc3)N2Cc2ccn(C)n2)C2(CC2)C1 (racemic) [Compound I-041]
10 to 100 nM | 10 to 100 nM | – | – | CC(C)COc1ccc(CN(Cc2ccc(F)cn2)C2=NC(=O)C3(CCN(C)CC34CC4)N2)cc1 (racemic) [Compound I-042]
10 to 100 nM | 10 to 100 nM | – | – | CC(C)COc1ccc(CN(Cc2ccn(C)n2)C2=NC(=O)C3(CCN(C)CC34CC4)N2)cc1 (racemic) [Compound I-043]
< 10 nM | < 10 nM | – | – | Cc1nc(CN(Cc2ccc(OCC(C)C)cc2)C2=NO[C@@]3(CCNC[C@H]3F)N2)co1 (racemic) [Compound I-085]
< 10 nM | < 10 nM | – | – | CCCOc1ccc(CC2=NOC3(CCN(C)CC34CC4)N2Cc2ccn(C)n2)cc1 (single isomer, unassigned) [Compound I-044]
100 to 500 nM | 10 to 100 nM | – | – | CCCOc1ccc(CC2=NOC3(CCN(C)CC34CC4)N2Cc2ccn(C)n2)cc1 (single isomer, unassigned) [Compound I-045]
100 to 500 nM | 100 to 500 nM | – | – | CC(C)COc1ccc(CN(C2=NOC3(CCN(C)CC3)N2)C(C)c2ccc(F)cc2)cc1 (single isomer, unassigned) [Compound I-074]
– | – | 16.7 nM | 4.82 nM | CC(C)COc1ccc(CC2=NOC3(CCN(C)CC3)N2Cc2ccc(F)cc2)cc1 [Compound I-001]
– | – | 27.1 nM | 11.1 nM | CC(C)COc1ccc(C[C@H]2C(=O)NC3(CCN(C)CC3)N2Cc2ccc(F)cc2)cc1 [Compound I-002]
– | – | 4.11 nM | 19.8 nM | CC(C)COc1ccc(CC2=NOC3(CCNCC3)N2Cc2ccc(F)cc2O)cc1 [Compound I-003]
10 to 100 nM | < 10 nM | – | – | CC(C)COc1ccc(CC2=NOC3(CCN(C)CC3)N2Cc2ccc(F)cc2O)cc1 [Compound I-004]
– | – | 219 nM | 85.3 nM | CC(C)COc1ccc(CN=C2NC(=O)CC3(CCN(C)CC3)N2Cc2ccc(F)cc2)cc1 [Compound I-005]
– | 100 to 500 nM | – | – | COc1ccc(CNC2=NOC3(CCN(C)CC3)N2Cc2ccc(F)cc2)cc1 [Compound I-006]
10 to 100 nM | < 10 nM | – | – | CC(C)COc1ccc(CN(Cc2ccc(F)cn2)C2=NOC3(CCN(C)CC3)N2)cc1 [Compound I-007]
100 to 500 nM | 10 to 100 nM | – | – | CC(C)COc1ccc(CCC2=NOC3(CCN(C)CC3)N2Cc2ccc(F)cc2)cc1 [Compound I-008]
– | – | 0.585 nM | 1.22 nM | Cc1nc(CN(Cc2ccc(OCC(C)C)cc2)C2=NOC3(CCN(C)CC3)N2)co1 [Compound I-011]
10 to 100 nM | < 10 nM | – | – | CC(C)COc1ccc(CN(Cc2ccccn2)C2=NOC3(CCN(C)CC3)N2)cc1 [Compound I-012]
10 to 100 nM | 10 to 100 nM | – | – | Cc1cccc(CN(Cc2ccc(OCC(C)C)cc2)C2=NOC3(CCN(C)CC3)N2)n1 [Compound I-013]
10 to 100 nM | < 10 nM | – | – | CCCOc1ccc(CN(Cc2ccn(C)n2)C2=NOC3(CCN(C)CC3)N2)cc1 [Compound I-014]
10 to 100 nM | < 10 nM | – | – | CC(C)COc1ccc(CN(Cc2ccn(C(F)F)n2)C2=NOC3(CCN(C)CC3)N2)cc1 [Compound I-015]
– | 100 to 500 nM | – | – | CN1CCC2(CC1)NC(N(CC(=O)Nc1ccc(Cl)cc1)Cc1ccn(C)n1)=NO2 [Compound I-056]
– | 10 to 100 nM | – | – | Cc1ccc(CN(Cc2ccc(OCC(C)C)cc2)C2=NC(=O)C3(CCN(C)CC3)N2)cn1 [Compound I-059]
10 to 100 nM | – | – | – | CC(C)COc1ccc(CN(Cc2ccc(F)cc2)C2=NOC3(CCN(C)CC3)N2)cc1 [Compound I-060]

SMILES | Ki ([1]; read-out: h-5-HT2C Ki) | Ki ([2]; read-out: h-5-HT2A Ki) | Ki [1, 3] | Ki [2, 4]
CC(C)COc1ccc(CN(Cc2ccn(C)n2)C2=NOC3(CCN(C)CC3)N2)cc1 [Compound I-009] | < 10 nM | < 10 nM | – | –
CN1CCC2(CC1)NC(N(Cc1ccc(OCC(F)(F)C(F)F)cc1)Cc1ccn(C)n1)=NO2 [Compound I-010] | < 10 nM | < 10 nM | – | –
Cc1ccc(CN(Cc2ccc(OCC(C)C)cc2)C2=NOC3(CCN(C)CC3)N2)nc1 [Compound I-016] | < 10 nM | < 10 nM | – | –
